# Literature values in patent US20020165233A1, “Quinoxaline containing medicaments for post exposure prophylaxis of an HIV infection” (priority 1999, published 2002).
# Assays:
# [1] = tested on: HIV-1; settings: inhibitor given 1 hr before challenge, continued 20-30 weeks post challenge; cited from earlier work
# [2] = tested on: SIV; settings: administration 48 h before, 4 h after and 24 h after virus inoculation for 4 weeks; observed 56 weeks; cited from earlier work
# [3] = tested on: RT-SHIV; settings: RT-SHIV infected rhesus monkeys; cited from earlier work
# [4] = tested on: HIV; settings: cited from earlier work
# [5] = tested on: HIV; settings: prophylaxis with only zidovudine; case-control study; cited from earlier work
smiles,measurement,setting,value
"CCc1cc(CCc2nc3ccccc3o2)c(=O)[nH]c1C [L-696,229]",outcome of prophylaxis in treated animals,[1],developed delayed infections
C[C@H](Cn1cnc2c(N)ncnc21)OCP(=O)(O)O [PMPA],protection against SIV infection,[2],full protection
same,effect of post exposure prophylaxis (PEP),[3],vaccination effect protecting the animals against wild-type challenge
Cc1cn([C@H]2C[C@H](N=[N+]=[N-])[C@@H](CO)O2)c(=O)[nH]c1=O [zidovudine],suppression (change in viremia),[4]; after 7 days of treatment at 1000 mg per day (Loveday et al),1 log
same,mean initial suppression,[4]; conventionally used antiviral agents given alone,≤ 1 log
same,protective effect of prophylaxis,[5],80%
